For series [1], the system named is Mycobacterium tuberculosis. The series is described as follows: Antimycobacterial activity against Mycobacterium tuberculosis H37Rv after 7 days in presence of middlebrook 7H9/ADC medium by microplate alamar blue assay. The conditions noted are these: 168 h. The series is classed as functional. (In general: Alamar Blue is a resazurin reagent that responds to reducing activity.)

The nature of series [2]: Selectivity index, ratio of IC50 for CHO cells to IC50 for chloroquine-resistant asexual blood stage of Plasmodium falciparum K1. In kind it is toxicity. Conditions: hamster, read-out: Ratio IC50.
Series [3] in a line: Selectivity index, ratio of IC50 for CHO cells to IC50 for chloroquine-sensitive asexual blood stage of Plasmodium falciparum NF54. The conditions noted are these: hamster, read-out: Ratio IC50. In kind it is toxicity.
Series [4] deals with Mycobacterium tuberculosis. The series is described as follows: Antimycobacterial activity against Mycobacterium tuberculosis H37Rv after 14 days in presence of middlebrook 7H9/CAS medium by broth microdilution method. In kind it is functional. The conditions noted are these: 336 h. (In general: Dilution methods test growth across graded concentrations, often in twofold steps.)

For series [5], the system named is Mycobacterium tuberculosis. The series is described as follows: Antimycobacterial activity against Mycobacterium tuberculosis H37Rv after 7 days in presence of middlebrook 7H9/CAS medium by microplate alamar blue assay. In kind it is functional. Conditions: 168 h.
The test system of series [6] is Plasmodium falciparum. The series is described as follows: Antiplasmodial activity against chloroquine-sensitive asexual blood stage of Plasmodium falciparum NF54 by LDH assay. In kind it is functional, organism-based.
The subject of series [7] is Mycobacterium tuberculosis. The series is described as follows: Antimycobacterial activity against Mycobacterium tuberculosis H37Rv after 14 days in presence of middlebrook 7H9/ADC medium by broth microdilution method. The series is classed as functional. The conditions noted are these: 336 h.
A further series deals with CHO. The series is described as follows: Cytotoxicity against CHO cells measured after 48 hrs by MTT assay. The series is classed as cell-based. The conditions noted are these: Cricetulus griseus. Background: Tetrazolium dyes change colour on reduction, which living cells bring about.
Series [8] deals with Plasmodium falciparum. The series is described as follows: Antiplasmodial activity against chloroquine-resistant asexual blood stage of Plasmodium falciparum K1 by LDH assay. In kind it is functional, organism-based.
The nature of series [9]: Resistance index, ratio of IC50 for chloroquine-resistant asexual blood stage of Plasmodium falciparum K1 to IC50 for chloroquine-sensitive asexual blood stage of Plasmodium falciparum NF54. The series is classed as functional.
Series [10] deals with Hemozoin. The series is described as follows: Inhibition of beta-hematin formation assessed as reduction in hemozoin formation incubated for 16 hrs by NP40 detergent-mediated assay.
Series [11] deals with Plasmodium berghei. The series is described as follows: Antimalarial activity against GFP-transfected Plasmodium berghei ANKA infected in mouse assessed as mean survival days at 50 mg/kg, po administered consecutively at 4, 24, 48 and 72 hrs post infection. The series is classed as functional.
In series [12] the test system is Hemozoin. The series is described as follows: Potency index, ratio of chloroquine IC50 to compound IC50 for inhibition of beta-hematin assessed as hemozoin formation.
In series [13] the test system is Plasmodium berghei. The series is described as follows: Antimalarial activity against GFP-transfected Plasmodium berghei ANKA infected mouse assessed as reduction in parasitemia at 50 mg/kg, po consecutively at 4, 24, 48 and 72 hrs post infection by flow cytometry relative to control. In kind it is functional.

Bounds are passed on as bounds.

`Clc1ccc2c(NCCCn3c(-c4ccccc4)nc4ccccc43)ccnc2c1`: the MIC90 in series [1] is 38.8 µM; in series [4], 62.5 µM; in series [5] it was 50.6 µM; in series [7] it was 125 µM. In addition, the values for the selectivity ratio in [2] and in series [3] were 209 and 7.57, respectively. Also, the IC50 came out at 5.55 µM in the series on Plasmodium falciparum [6], 42 µM in the series on CHO and 0.201 µM in the series on Plasmodium falciparum [8]. Also, the Ratio IC50 in series [9] came out at 0.0362.

For the compound `CO[C@H]1/C=C/O[C@@]2(C)Oc3c(C)c(O)c4c(O)c(c(/C=N/N5CCN(C)CC5)c(O)c4c3C2=O)NC(=O)/C(C)=C\C=C\[C@H](C)[C@H](O)[C@@H](C)[C@@H](O)[C@@H](C)[C@H](OC(C)=O)[C@@H]1C` [RIFAMPIN], the MIC90 turned out to be 0.0156 µM in series [1], 0.018 µM in series [4], 0.0217 µM in [5] and 0.018 µM in series [7].

Regarding `N#Cc1ccc2c(c1)nc(-c1ccccc1)n2CCCNc1ccnc2cc(Cl)ccc12`, the MIC90 was over 62.5 µM in series [1], 62.5 µM in series [4], over 125 µM in [5] and over 125 µM in series [7]. Moreover, the selectivity ratio in [2] was determined as 217; in series [3], 39.9. The results for the IC50 in the series on Plasmodium falciparum [6], in the series on CHO and in the series on Plasmodium falciparum [8] were 0.975 µM, 38.9 µM and 0.179 µM, respectively. The Ratio IC50 in series [9] came out at 0.183.

`Cc1ccc2c(c1)nc(-c1ccccc1)n2CCCNc1ccnc2cc(Cl)ccc12`: the MIC90 was over 62.5 µM in series [1], 31.2 µM in [4], 32.7 µM in series [5] and 125 µM in series [7]. Further, the values for the IC50 in the series on Plasmodium falciparum [6], with CHO and with Plasmodium falciparum [8] were 0.784 µM, over 50 µM and 0.457 µM, respectively. In [9], the Ratio IC50 was 0.583.

`FC(F)(F)c1ccc2c(c1)nc(-c1ccccc1)n2CCCNc1ccnc2cc(Cl)ccc12`: the MIC90 in [1] is 89.1 µM; in series [4] it was 15.6 µM; in series [5] it was 15.8 µM; in series [7], 62.5 µM. Further, the selectivity ratio in series [2] was found to be 107; in [3], 37.5. The IC50 worked out at 16 µM with Hemozoin [10], 0.431 µM in the series on Plasmodium falciparum [6], 16.2 µM in the series on CHO and 0.151 µM with Plasmodium falciparum [8]. Also, the MSD in the series on Plasmodium berghei [11] turned out to be 7 days. In addition, the Ratio IC50 was 4 in the series on Hemozoin [12] and 0.35 in series [9]. In addition, the inhibition in vivo at 50 mg/kg in the series with Plasmodium berghei [13] was 58%.

For the compound `CC[C@H]1CN2CCc3cc(OC)c(OC)cc3[C@@H]2C[C@@H]1C[C@H]1NCCc2cc(OC)c(OC)cc21` [EMETINE], the IC50 with CHO came to 0.0162 µM.

As for `C[C@H]1[C@H](OC(=O)CCC(=O)O)O[C@@H]2O[C@@]3(C)CC[C@H]4[C@H](C)CC[C@@H]1[C@@]24OO3` [ARTESUNATE], in the series on Plasmodium falciparum [6], the IC50 was determined as 0.0098 µM.

As for `CCN(CC)CCCC(C)Nc1ccnc2cc(Cl)ccc12` (centres undefined) [CHLOROQUINE], the IC50 in the series with Hemozoin [10] was 74 µM.

`CS(=O)(=O)c1ccc2c(c1)nc(-c1ccccc1)n2CCCNc1ccnc2cc(Cl)ccc12`: the MIC90 in series [1] is over 62.5 µM; in series [4], 125 µM; in series [5] it was over 125 µM; in series [7], over 125 µM. Moreover, the selectivity ratio was determined as 22.4 in series [2] and 73.2 in series [3]. In addition, the results for the IC50 in the series with Plasmodium falciparum [6], in the series on CHO and in the series on Plasmodium falciparum [8] were 0.559 µM, 40.9 µM and 1.83 µM, respectively. Besides, the Ratio IC50 in series [9] came out at 3.28.

What is called MIC90 is an inhibitory concentration at the 90% level, which refers to growth in some studies and to a panel of isolates in others. One may read the IC50 as the concentration that gives 50% inhibition. As usually defined, the inhibition in vivo is the change of the read-out against control, counted positive when it falls.

For the origin of these results see ChEMBL document CHEMBL4359849, “Bioisosteric ferrocenyl aminoquinoline-benzimidazole hybrids: Antimicrobial evaluation and mechanistic insights” (Eur J Med Chem, 2019).
